The text below walks through data of ChEMBL document CHEMBL3525943, “Regiospecific and stereospecific triangulation of the structures of metabolites formed by sequential metabolism at multiple prochiral centers” (Drug Metab Dispos, 2012).

Holding throughout (assay type): ADME, organism-based
Common to all, as to conditions: in vivo

The nature of data set [1]: Retention time of the compound in bile duct cannulated Sprague-Dawley rat bile treated with [14C]-(S)-2-((1R,2S,4R,5S)-5-hydroxybicyclo[2.2.1]heptan-2-ylamino)-5-isopropyl-5-methylthiazol-4(5H)-one at 5 mg/kg, po measured over 48 hrs by LC-MS/HPLC radiometric analysis. The arrangement: dose 5 mg/kg, route oral.
The test system of data set [2] is Rattus norvegicus. Description: Total drug recovery in female Sprague-Dawley rat treated with [14C]-AMG 221 at 2 mg/kg, po measured over 48 hrs by liquid scintillation counting analysis. The arrangement: dose 2 mg/kg, route oral.
Data set [3] in a line: Drug recovery in urine of Sprague-Dawley rat at 2 mg/kg, po measured over 48 hrs by liquid scintillation counting analysis. The arrangement: dose 2 mg/kg, route oral.
The nature of data set [4]: Drug metabolism in Sprague-Dawley rat urine assessed as formation of (S)-2-((1R,2S,4R,5S)-5-hydroxybicyclo[2.2.1]heptan-2-ylamino)-5-((S)-1-hydroxypropan-2-yl)-5-methylthiazol-4(5H)-one at 2 mg/kg, po measured over 24 hrs by LC-MS/HPLC radiometric analysis. The arrangement: dose 2 mg/kg, route oral.
Data set [5] can be described thus: Drug metabolism in Sprague-Dawley rat urine assessed as formation of (S)-2-((1R,2S,4R,5R)-5-hydroxybicyclo[2.2.1]heptan-2-ylamino)-5-isopropyl-5-methylthiazol-4(5H)-one at 2 mg/kg, po measured over 24 hrs by LC-MS/HPLC radiometric analysis. The arrangement: dose 2 mg/kg, route oral.
Data set [6] relates to Rattus norvegicus. Description: Total drug recovery in Sprague-Dawley rat at 2 mg/kg, po measured over 48 hrs by liquid scintillation counting analysis. The arrangement: dose 2 mg/kg, route oral.
A short description of data set [7]: Drug metabolism in Sprague-Dawley rat urine assessed as formation of (S)-2-((1R,2S,4R,5S)-5-hydroxybicyclo[2.2.1]heptan-2-ylamino)-5-(2-hydroxypropan-2-yl)-5-methylthiazol-4(5H)-one at 2 mg/kg, po measured over 24 hrs by LC-MS/HPLC radiometric analysis. The arrangement: dose 2 mg/kg, route oral.
Data set [8] deals with Plasma. As to the kind of experiment: Drug metabolism in Sprague-Dawley rat plasma assessed as formation of (S)-2-((1R,2S,4R,5R)-5-hydroxybicyclo[2.2.1]heptan-2-ylamino)-5-isopropyl-5-methylthiazol-4(5H)-one at 2 mg/kg, po measured at 0.5 hrs by LC-MS/HPLC radiometric analysis. The arrangement: dose 2 mg/kg, route oral.
A short description of data set [9]: Drug level in Sprague-Dawley rat urine at 2 mg/kg, po measured over 24 hrs by LC-MS/HPLC radiometric analysis. Set-up: dose 2 mg/kg, route oral.
Data set [10] in a line: Drug metabolism in Sprague-Dawley rat urine assessed as formation of (S)-2-((1S,2S,4R)-bicyclo[2.2.1]heptan-2-ylamino)-5-((R)-1-hydroxypropan-2-yl)-5-methylthiazol-4(5H)-one at 2 mg/kg, po measured over 24 hrs by LC-MS/HPLC radiometric analysis. The arrangement: dose 2 mg/kg, route oral.
Data set [11] has as its system Plasma. Description: Drug metabolism in Sprague-Dawley rat plasma assessed as formation of (S)-2-((1S,2S,4R)-bicyclo[2.2.1]heptan-2-ylamino)-5-((S)-1-hydroxypropan-2-yl)-5-methylthiazol-4(5H)-one at 2 mg/kg, po measured at 0.5 hrs by LC-MS/HPLC radiometric analysis. The arrangement: dose 2 mg/kg, route oral.
Data set [12] relates to Plasma. As to the kind of experiment: Drug level in Sprague-Dawley rat plasma at 2 mg/kg, po measured at 0.5 hrs by LC-MS/HPLC radiometric analysis. The arrangement: dose 2 mg/kg, route oral.
The subject of data set [13] is Plasma. Description: Drug metabolism in Sprague-Dawley rat plasma assessed as formation of (S)-2-((1S,2S,4R)-bicyclo[2.2.1]heptan-2-ylamino)-5-((R)-1-hydroxypropan-2-yl)-5-methylthiazol-4(5H)-one at 2 mg/kg, po measured at 0.5 hrs by LC-MS/HPLC radiometric analysis. The arrangement: dose 2 mg/kg, route oral.
Data set [14] in a line: Drug metabolism in Sprague-Dawley rat urine assessed as formation of (S)-5-isopropyl-5-methyl-2-((1R,2S,4R)-5-oxobicyclo[2.2.1]heptan-2-ylamino)thiazol-4(5H)-one at 2 mg/kg, po measured over 24 hrs by LC-MS/HPLC radiometric analysis. Set-up: dose 2 mg/kg, route oral.
The nature of data set [15]: Drug metabolism in Sprague-Dawley rat urine assessed as formation of (S)-2-((1R,2S,4R,5S)-5-hydroxybicyclo[2.2.1]heptan-2-ylamino)-5-isopropyl-5-methylthiazol-4(5H)-one at 2 mg/kg, po measured over 24 hrs by LC-MS/HPLC radiometric analysis. The arrangement: dose 2 mg/kg, route oral.
The nature of data set [16]: Drug metabolism in Sprague-Dawley rat urine assessed as formation of (S)-2-((1S,2S,4R,6R)-6-hydroxybicyclo[2.2.1]heptan-2-ylamino)-5-isopropyl-5-methylthiazol-4(5H)-one at 2 mg/kg, po measured over 24 hrs by LC-MS/HPLC radiometric analysis. Set-up: dose 2 mg/kg, route oral.
A short description of data set [17]: Drug metabolism in Sprague-Dawley rat feces assessed as formation of trihydroxy norbornyl metabolite at 2 mg/kg, po measured over 24 hrs by LC-MS/HPLC radiometric analysis. The arrangement: dose 2 mg/kg, route oral.
Data set [18] deals with Plasma. Description: Drug metabolism in Sprague-Dawley rat plasma assessed as formation of (S)-5-isopropyl-5-methyl-2-((1R,2S,4R)-5-oxobicyclo[2.2.1]heptan-2-ylamino)thiazol-4(5H)-one at 2 mg/kg, po measured at 0.5 hrs by LC-MS/HPLC radiometric analysis. The arrangement: dose 2 mg/kg, route oral.
The subject of data set [19] is Plasma. Description: Drug metabolism in Sprague-Dawley rat plasma assessed as formation of (S)-2-((1R,2S,4R,5S)-5-hydroxybicyclo[2.2.1]heptan-2-ylamino)-5-isopropyl-5-methylthiazol-4(5H)-one at 2 mg/kg, po measured at 0.5 hrs by LC-MS/HPLC radiometric analysis. Set-up: dose 2 mg/kg, route oral.
A short description of data set [20]: Drug level in Sprague-Dawley rat feces at 2 mg/kg, po measured over 24 hrs by LC-MS/HPLC radiometric analysis. The arrangement: dose 2 mg/kg, route oral.
The nature of data set [21]: Drug recovery in feces of Sprague-Dawley rat at 2 mg/kg, po measured over 48 hrs by liquid scintillation counting analysis. Set-up: dose 2 mg/kg, route oral.
A short description of data set [22]: Drug metabolism in Sprague-Dawley rat feces assessed as formation of (1R,2R,4R,5S)-5-((S)-5-isopropyl-5-methyl-4-oxo-4,5-dihydrothiazol-2-ylamino)bicyclo[2.2.1]heptan-2-yl hydrogen sulfate at 2 mg/kg, po measured over 24 hrs by LC-MS/HPLC radiometric analysis. The arrangement: dose 2 mg/kg, route oral.
A short description of data set [23]: Drug metabolism in Sprague-Dawley rat urine assessed as formation of trihydroxy norbornyl metabolite at 2 mg/kg, po measured over 24 hrs by LC-MS/HPLC radiometric analysis. The arrangement: dose 2 mg/kg, route oral.
Data set [24] can be described thus: Drug metabolism in Sprague-Dawley rat urine assessed as formation of (S)-2-((1S,2S,4R,6R)-6-hydroxybicyclo[2.2.1]heptan-2-ylamino)-5-((S)-1-hydroxypropan-2-yl)-5-methylthiazol-4(5H)-one at 2 mg/kg, po measured over 24 hrs by LC-MS/HPLC radiometric analysis. The arrangement: route oral, dose 2 mg/kg.
Data set [25] in a line: Drug recovery in feces of Sprague-Dawley rat at 5 mg/kg, po measured after 72 hrs by liquid scintillation counting analysis. Set-up: dose 5 mg/kg, route oral.
Data set [26] concerns Plasma. As to the kind of experiment: Drug level in Sprague-Dawley rat plasma at 5 mg/kg, po measured after 72 hrs by liquid scintillation counting analysis. The arrangement: dose 5 mg/kg, route oral.
Data set [27] can be described thus: Drug metabolism in Sprague-Dawley rat urine assessed as formation of (S)-2-((1R,2S,4R,5S)-5-hydroxybicyclo[2.2.1]heptan-2-ylamino)-5-((R)-1-hydroxypropan-2-yl)-5-methylthiazol-4(5H)-one at 5 mg/kg, po measured over 24 hrs by LC-MS/HPLC radiometric analysis. Set-up: dose 5 mg/kg, route oral.
Data set [28] can be described thus: Drug metabolism in Sprague-Dawley rat urine assessed as formation of (S)-2-((1R,2S,4R,5R)-5-hydroxybicyclo[2.2.1]heptan-2-ylamino)-5-((S)-1-hydroxypropan-2-yl)-5-methylthiazol-4(5H)-one at 5 mg/kg, po measured over 24 hrs by LC-MS/HPLC radiometric analysis. Set-up: dose 5 mg/kg, route oral.
Data set [29] in a line: Drug recovery in urine of Sprague-Dawley rat at 5 mg/kg, po measured after 72 hrs by liquid scintillation counting analysis. Set-up: dose 5 mg/kg, route oral.
A short description of data set [30]: Drug metabolism in Sprague-Dawley rat urine assessed as formation of (S)-2-((1R,2S,4R,5S)-5-hydroxybicyclo[2.2.1]heptan-2-ylamino)-5-(2-hydroxypropan-2-yl)-5-methylthiazol-4(5H)-one at 5 mg/kg, po measured over 24 hrs by LC-MS/HPLC radiometric analysis. Set-up: dose 5 mg/kg, route oral.
The nature of data set [31]: Drug recovery in urine of bile duct cannulated Sprague-Dawley rat at 5 mg/kg, po measured over 48 hrs by liquid scintillation counting analysis. Set-up: dose 5 mg/kg, route oral.
Data set [32] is described as follows: Drug metabolism in Sprague-Dawley rat urine assessed as formation of (2S,3S,4S,5R)-3,4,5-trihydroxy-6-((1R,2S,4R,5S)-5-((S)-5-isopropyl-5-methyl-4-oxo-4,5-dihydrothiazol-2-ylamino)bicyclo[2.2.1]heptan-2-yloxy)tetrahydro-2H-pyran-2-carboxylic acid at 5 mg/kg, po measured over 48 hrs by LC-MS/HPLC radiometric analysis. The arrangement: dose 5 mg/kg, route oral.

The nature of data set [33]: Drug recovery in bile of bile duct cannulated Sprague-Dawley rat at 5 mg/kg, po measured over 48 hrs by liquid scintillation counting analysis. The arrangement: dose 5 mg/kg, route oral.
The nature of data set [34]: Drug metabolism in Sprague-Dawley rat urine assessed as formation of (S)-5-isopropyl-5-methyl-2-((1R,2S,4R)-5-oxobicyclo[2.2.1]heptan-2-ylamino)thiazol-4(5H)-one at 5 mg/kg, po measured over 24 hrs by LC-MS/HPLC radiometric analysis. The arrangement: dose 5 mg/kg, route oral.

Molecule `CC(C)[C@]1(C)SC(N[C@H]2C[C@H]3C[C@@H]2C[C@H]3O[C@@H]2O[C@H](C(=O)O)[C@@H](O)[C@H](O)[C@H]2O)=NC1=O` had a Retention_time in data set [1] of 25.2 min. This molecule came in with a Drug recovery with Rattus norvegicus [2] of 0.2%.

As to `CC(C)[C@]1([14CH3])SC(N[C@H]2C[C@@H]3CC[C@H]2C3)=NC1=O`, the Drug recovery is given as 64% in data set [3], 81% with Rattus norvegicus [6] and 14% in data set [21]. Further, the Drug metabolism result (in data set [4]; in [5]; in [7]; with Plasma [8]; in [10]; with Plasma [11]) was “metabolite_detected” each time. The Drug metabolism result (with Plasma [13]; in data set [14]; in data set [15]; in data set [16]; in [17]; with Plasma [18]) was “metabolite_detected” each time. For the same molecule, the Drug metabolism entry (in the data set with Plasma [19]; in data set [22]; in data set [23]; in [24]) was “metabolite_detected” each time. In addition, the Drug uptake result in data set [9] is reported as “Not Active”; in the data set with Plasma [12] it was “Active”; in data set [20] it was “Not Active”.

As for `CC(C)[C@]1([14CH3])SC(N[C@H]2C[C@H]3C[C@@H]2C[C@@H]3O)=NC1=O`, the Drug recovery in data set [25] was 7%; in data set [29] it was 89%; in data set [31], 55%; in data set [33], 10%. Besides, the Drug uptake result (in the data set with Plasma [26]; in data set [9]) was “Active” throughout. For the same molecule, the Drug metabolism entry in data set [27], in data set [28], in [30], in data set [32] and in data set [34] was “metabolite_detected” in each case.
